Legend:
Type in all cases: cell-based
human TLR7 = molecular target: T1, human TLR7 (Homo sapiens, UniProt Q9NYK1); test: TLR7 cellular NFκB-luc reporter assay in transiently transfected HEK293 cells; conditions: lowest effective concentration, 6 hours incubation
T1 construct: expressed in transfected cells; host or cells: HEK293
T1 sequence (Q9NYK1 27-1049): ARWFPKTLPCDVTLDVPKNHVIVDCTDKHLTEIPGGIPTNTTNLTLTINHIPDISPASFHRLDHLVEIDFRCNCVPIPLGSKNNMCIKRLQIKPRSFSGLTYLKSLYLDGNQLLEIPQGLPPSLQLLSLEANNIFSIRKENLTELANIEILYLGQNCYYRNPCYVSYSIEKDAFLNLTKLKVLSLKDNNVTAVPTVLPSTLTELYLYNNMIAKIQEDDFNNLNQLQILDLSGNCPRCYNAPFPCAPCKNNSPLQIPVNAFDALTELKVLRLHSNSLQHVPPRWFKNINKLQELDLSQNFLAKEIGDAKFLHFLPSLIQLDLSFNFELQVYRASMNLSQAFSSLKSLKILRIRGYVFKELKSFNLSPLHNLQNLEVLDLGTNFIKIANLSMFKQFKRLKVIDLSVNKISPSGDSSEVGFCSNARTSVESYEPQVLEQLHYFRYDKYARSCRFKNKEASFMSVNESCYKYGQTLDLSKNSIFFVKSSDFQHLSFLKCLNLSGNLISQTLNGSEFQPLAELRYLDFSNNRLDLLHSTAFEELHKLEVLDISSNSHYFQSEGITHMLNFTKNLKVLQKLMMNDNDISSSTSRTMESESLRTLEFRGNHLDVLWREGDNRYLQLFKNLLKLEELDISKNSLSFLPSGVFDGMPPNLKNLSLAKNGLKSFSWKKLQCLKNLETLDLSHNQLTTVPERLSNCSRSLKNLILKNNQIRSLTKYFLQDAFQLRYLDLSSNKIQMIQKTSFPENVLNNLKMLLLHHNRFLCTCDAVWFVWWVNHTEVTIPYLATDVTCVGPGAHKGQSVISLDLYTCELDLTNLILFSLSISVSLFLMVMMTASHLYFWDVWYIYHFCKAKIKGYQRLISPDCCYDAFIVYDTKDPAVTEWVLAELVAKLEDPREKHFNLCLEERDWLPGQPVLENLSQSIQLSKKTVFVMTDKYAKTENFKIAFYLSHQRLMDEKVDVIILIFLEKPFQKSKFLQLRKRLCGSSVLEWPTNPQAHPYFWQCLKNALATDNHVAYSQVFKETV
Protocol: (§1) The ability of compounds to activate human TLR7 and/or TLR8 was assessed in a cellular reporter assay using HEK293 cells transiently transfected with a TLR7 or TLR8 expression vector and NFκB-luc reporter construct.
(§2) Briefly, HEK293 cells were grown in culture medium (DMEM supplemented with 10% FCS and 2 mM Glutamine). For transfection of cells in 15 cm dishes, cells were detached with Trypsin-EDTA, transfected with a mix of CMV-TLR7 or TLR8 plasmid (1700 ng), NFκB-luc plasmid (850 ng) and a transfection reagent and incubated for 48 h at 37° C. in a humidified 5% CO2 atmosphere. Transfected cells were then washed in PBS, detached with Trypsin-EDTA and resuspended in medium to a density of 1.25×10^5 cells/mL. Forty microliters of cells were then dispensed into each well in 384-well plates, where 200 nL of compound in 100% DMSO was already present. Following 6 hours incubation at 37° C., 5% CO2, the luciferase activity was determined by adding 15 μL of Steady Lite Plus substrate (Perkin Elmer) to each well and readout performed on a ViewLux ultraHTS microplate imager (Perkin Elmer). Dose response curves were generated from measurements performed in quadruplicates.

human TLR8 = molecular target: T2, human TLR8 (Homo sapiens, UniProt Q9NR97); test: TLR8 cellular NFκB-luc reporter assay in transiently transfected HEK293 cells; conditions: lowest effective concentration, 6 hours incubation
T2 construct: expressed in transfected cells; host or cells: HEK293
T2 sequence (Q9NR97 27-1041): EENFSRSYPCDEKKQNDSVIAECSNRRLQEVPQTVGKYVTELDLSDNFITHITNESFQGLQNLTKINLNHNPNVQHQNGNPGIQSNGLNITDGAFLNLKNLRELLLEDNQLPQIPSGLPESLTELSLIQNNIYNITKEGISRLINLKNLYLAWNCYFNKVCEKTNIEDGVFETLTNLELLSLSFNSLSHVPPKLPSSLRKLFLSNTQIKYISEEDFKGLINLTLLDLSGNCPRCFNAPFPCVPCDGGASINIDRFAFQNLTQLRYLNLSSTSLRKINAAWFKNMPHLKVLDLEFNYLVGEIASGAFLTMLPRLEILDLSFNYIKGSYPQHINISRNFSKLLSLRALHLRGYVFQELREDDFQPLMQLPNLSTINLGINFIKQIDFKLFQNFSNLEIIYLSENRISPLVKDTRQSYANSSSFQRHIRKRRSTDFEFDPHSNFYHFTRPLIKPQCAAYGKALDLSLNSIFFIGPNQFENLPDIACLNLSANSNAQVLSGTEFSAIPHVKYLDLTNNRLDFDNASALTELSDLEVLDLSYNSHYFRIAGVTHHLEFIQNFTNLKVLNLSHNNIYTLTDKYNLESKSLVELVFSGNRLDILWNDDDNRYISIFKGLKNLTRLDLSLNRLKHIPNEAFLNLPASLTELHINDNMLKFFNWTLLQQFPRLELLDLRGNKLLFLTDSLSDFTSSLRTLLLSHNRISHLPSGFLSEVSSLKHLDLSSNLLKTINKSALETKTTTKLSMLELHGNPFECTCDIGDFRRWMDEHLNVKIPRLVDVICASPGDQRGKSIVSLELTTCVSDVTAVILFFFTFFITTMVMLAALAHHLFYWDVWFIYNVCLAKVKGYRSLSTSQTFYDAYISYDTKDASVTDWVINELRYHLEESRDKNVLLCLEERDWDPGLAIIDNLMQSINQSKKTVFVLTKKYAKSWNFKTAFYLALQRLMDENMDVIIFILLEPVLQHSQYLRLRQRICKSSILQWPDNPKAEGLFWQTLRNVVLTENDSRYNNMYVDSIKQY
Protocol: as §1
as §2, with “quadruplicates. Lowest effective concentrations (LEC) values, defined as the concentration that induces an effect which is at least two fold above the standard deviation of the assay, were determined for each compound.” for “quadruplicates.”

[1] = system: interferon-stimulated responsive elements (ISRE); test: Activation of ISRE promoter elements in HEK-ISREluc cells by conditioned media from compound-treated PBMC; conditions: compound concentration applied to PBMCs overnight, supernatant on HEK-ISREluc cells 24 hours, read-out: HEK-ISRE luc (LEC)
Protocol: The potential of compounds to induce IFN-I was also evaluated by measuring the activation of interferon-stimulated responsive elements (ISRE) by conditioned media from PBMC. The ISRE element of sequence […] (SEQ ID NO: 1) is highly responsive to the STAT1-STAT2-IRF9 transcription factor, activated upon binding of IFN-I to their receptor IFNAR (Clontech, PT3372-5W). The plasmid pISRE-Luc from Clontech (ref. 631913) contains 5 copies of this ISRE element, followed by the firefly luciferase ORF. A HEK293 cell line stably transfected with pISRE-Luc (HEK-ISREluc) was established to profile the conditioned PBMC cell culture media.
Briefly, PBMCs were prepared from buffy coats of at least two donors using a standard Ficoll centrifugation protocol. Isolated PBMCs were resuspended in RPMI medium supplemented with 10% human AB serum and 2×10^5 cells/well were dispensed into 384-well plates containing compounds (70 μL total volume). After overnight incubation, 10 μL of supernatant was transferred to 384-well plates containing 5×10^3 HEK-ISREluc cells/well in 30 μL (plated the day before). Following 24 hours of incubation, activation of the ISRE elements was measured by assaying luciferase activity using 40 μL/well Steady Lite Plus substrate (Perkin Elmer) and measured with ViewLux ultraHTS microplate imager (Perkin Elmer). The stimulating activity of each compound on the HEK-ISREluc cells was reported as LEC value, defined as the compound concentration applied to the PBMCs resulting in a luciferase activity at least two fold above the standard deviation of the assay. The LEC in turn indicates the degree of ISRE activation on transfer of a defined amount of PBMC culture medium. Recombinant interferon α-2a (Roferon-A) was used as a standard control compound.

| SMILES | Human TLR 7 (LEC) (human TLR7) [µM] | Human TLR 8 (LEC) (human TLR8) [µM] | minimal effective concentration [1] [µM] |
| --- | --- | --- | --- |
| CCCCOc1nc(N)nc2ccn(Cc3ccccc3)c12 [Compound 1] | 0.6 | >25 | 0.4 |
| COCCn1ccc2nc(N)nc(OCc3cc(C)on3)c21 [Compound 2] | 2.7 | >25 | 0.5 |
| COc1ccccc1Cn1ccc2nc(N)nc(OCc3cc(C)on3)c21 [Compound 3] | 0.1 | >25 | 0.03 |
| CCCCOc1nc(N)nc2ccn(Cc3ccccn3)c12 [Compound 4] | 1.4 | >25 | 0.6 |
| Cc1cc(COc2nc(N)nc3ccn(Cc4ccccn4)c23)no1 [Compound 5] | – | >25 | – |
| Cc1nc(COc2nc(N)nc3ccn(Cc4ccccn4)c23)no1 [Compound 6] | – | >25 | – |
| COc1ccc(Cn2ccc3nc(N)nc(OCc4cc(C)on4)c32)nc1OC [Compound 7] | 0.08 | >25 | 0.03 |
| Cc1cnc(COc2nc(N)nc3ccn(Cc4ccccn4)c23)s1 [Compound 10] | – | >25 | – |

Continued, in another order:

| Human TLR 7 (LEC) (human TLR7) [µM] | Human TLR 8 (LEC) (human TLR8) [µM] | SMILES | minimal effective concentration [1] [µM] |
| --- | --- | --- | --- |
| 0.03 | >25 | COc1cccnc1Cn1ccc2nc(N)nc(OCc3cc(C)on3)c21 [Compound 8] | 0.01 |
| – | >25 | COc1cccnc1Cn1ccc2nc(N)nc(OCc3ncc(C)o3)c21 [Compound 9] | – |
| – | >25 | Cc1cnc(COc2nc(N)nc3ccn(Cc4ccccn4)c23)o1 [Compound 11] | – |

— US10385054B2, “Pyrrolo[3,2-d]pyrimidine derivatives for the treatment of viral infections and other diseases” (Janssen Sciences Ireland Unlimited Company, priority 2013, dated 2019)
